Source: patent US8865734B2 (priority 2010, dated 2014)
In brackets after ≈: the same amount, converted by molar mass. Where two headings read alike, the source gives them in different places.

Tests used:
[1] = system: in vitro grown Mycobacteria (M. tuberculosis); test: QUM: Quantification of in vitro grown Mycobacteria (in vitro growth fluorescence assay); assay type: cell-based; details: Mycobacterium tuberculosis
Outline: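 Mycobacterium tuberculosis grown in vitro was quantified by fluorescence across compound dose responses. MIC is defined as the minimum concentration producing 80% growth inhibition.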

[2] = system: M. tuberculosis inside the host macrophage; test: QIM: Quantification of Intracellular Mycobacteria (intracellular growth assay, phenotypic cell-based); details: Mycobacterium tuberculosis
Outline: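 Phenotypic high-content assay measuring M. tuberculosis multiplication inside host macrophages, run as dose response. MIC is the minimum compound concentration giving 80% bacterial growth inhibition.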

[3] = MIC, 80% bacterial growth inhibition, in vitro growth, read-out: QUM
[4] = MIC, 80% bacterial growth inhibition, intracellular growth, read-out: QIM

Compound | MIC [1, 3] [µM] | MIC [2, 4] [µM] | other results
Cc1nc2ccc(Cl)cn2c1C(=O)NCc1ccccc1 [Compound 29, N-Benzyl-6-chloro-2-methylimidazo[1,2-a]pyridine-3-carboxamide] | 1 to 20 (≈ 0.3 to 6 µg/mL) | 1 to 20 (≈ 0.3 to 6 µg/mL) | 
Cc1nc2ccccn2c1C(=O)Nc1ccncc1 [Compound 5, 2-Methyl-N-(pyridin-4-yl)imidazo[1,2-a]pyridine-3-carboxamide] | > 20 | > 20 | 
CCc1nc2ccc(Cl)cn2c1C(=O)NCc1ccc(N2CCN(Cc3ccc(F)cc3)CC2)cc1 [Compound 171, 6-Chloro-2-ethyl-N-(4-(4-(4-fluorobenzyl)piperazin-1-yl)benzyl)imidazo[1,2-a]pyridine-3-carboxamide] | < 1 | < 1 | 
Cc1nc2ccc(Cl)cn2c1C(=O)NCc1ccc(OC(F)(F)F)cc1 [Compound 154, 6-Chloro-2-methyl-N-(4-(trifluoromethoxy)benzyl)imidazo[1,2-a]pyridine-3-carboxamide] | < 1 | 1 to 20 (≈ 0.384 to 7.68 µg/mL) | 
CCc1nc2ccc(Cl)cn2c1CNc1ccc(OC(F)(F)F)cc1 [Compound 240, N-((6-Chloro-2-ethylimidazo[1,2-a]pyridin-3-yl)methyl)-4-(trifluoromethoxy)aniline] | > 20 | > 20 | 
CCc1nc2cc(Cl)ccn2c1C(=O)NCc1ccc(Oc2ccc(F)cc2)cc1 [Compound 188, 7-Chloro-2-ethyl-N-(4-(4-fluorophenoxy)benzyl)imidazo[1,2-a]pyridine-3-carboxamide] | < 1 | < 1 | 
CCc1nc2ccc(Cl)cn2c1C(=O)NCc1ccc(-c2ccccc2C#N)cc1 [Compound 125, 6-Chloro-N-((2′-cyanobiphenyl-4-yl)methyl)-2-ethylimidazo[1,2-a]pyridine-3-carboxamide] | < 1 | 1 to 20 (≈ 0.415 to 8.3 µg/mL) | 
CCc1nc2cc(Cl)ccn2c1C(=O)NCc1ccc(N2CCN(C)CC2)cc1 [Compound 109, 7-Chloro-2-ethyl-N-(4-(4-methylpiperazin-1-yl)benzyl)imidazo[1,2-a]pyridine-3-carboxamide] | 1 to 20 (≈ 0.412 to 8.24 µg/mL) | 1 to 20 (≈ 0.412 to 8.24 µg/mL) | 
CCc1nc2cc(Cl)ccn2c1C(=O)NCc1ccc(-c2ccc(F)cc2Cl)cc1 [Compound 133, 7-Chloro-N-((2′-chloro-4′-fluorobiphenyl-4-yl)methyl)-2-ethylimidazo[1,2-a]pyridine-3-carboxamide] | < 1 | < 1 | 
CCc1nc2cc([N+](=O)[O-])ccn2c1C(=O)NCc1ccc(N2CCC(Oc3ccc(OC(F)(F)F)cc3)CC2)cc1 [Compound 170, 2-Ethyl-7-nitro-N-(4-(4-(4-(trifluoromethoxy)phenoxy)piperidin-1-yl)benzyl) imidazo[1,2-a]pyridine-3-carboxamide] | 1 to 20 (≈ 0.584 to 11.7 µg/mL) | 1 to 20 (≈ 0.584 to 11.7 µg/mL) | 
CCc1nc2ccc(Cl)cn2c1C(=O)NCc1ccc(Oc2ccccc2)cc1 [Compound 71] | < 1 | < 1 | 
CCc1nc2cc(Cl)ccn2c1-c1nnc(CN2CCN(c3ccc(OC(F)(F)F)cc3)CC2)o1 [Compound 244, 2-(7-Chloro-2-ethylimidazo[1,2-a]pyridin-3-yl)-5-((4-(4-(trifluoromethoxy)phenyl)piperazin-1-yl)methyl)-1,3,4-oxadiazole] | 1 to 20 (≈ 0.507 to 10.1 µg/mL) | 1 to 20 (≈ 0.507 to 10.1 µg/mL) | 
CCc1nc2cc(Cl)ccn2c1C(=O)NCc1ccc(-c2ccccc2)cc1 [Compound 93] | < 1 | < 1 | 
CCc1nc2cc(Cl)ccn2c1C(=O)NCc1ccn(-c2ccc(C(F)(F)F)cc2)n1 [Compound 234, 7-Chloro-2-ethyl-N-((1-(4-(trifluoromethyl)phenyl)-1H-pyrazol-3-yl)methyl)imidazo[1,2-a]pyridine-3-carboxamide] | 1 to 20 (≈ 0.448 to 8.96 µg/mL) | 1 to 20 (≈ 0.448 to 8.96 µg/mL) | 
CCc1nc2cc(Cl)ccn2c1C(=O)NCc1ccc(-c2ccc(C(C)(C)C)cc2)cc1 [Compound 117, N-((4′-tert-Butylbiphenyl-4-yl)methyl)-7-chloro-2-ethylimidazo[1,2-a]pyridine-3-carboxamide] | < 1 | < 1 | 
CCc1nc2ccccn2c1C(=O)NCc1ccc(C(C)(C)C)cc1 [Compound 55, N-(4-tert-Butylbenzyl)-2-ethylimidazo[1,2-a]pyridine-3-carboxamide] | < 1 | < 1 | 
CCOC(=O)c1c(C)nc2cc(-c3ccccc3)ccn12 [Compound 2, Ethyl 2-methyl-7-phenylimidazo[1,2-a]pyridine-3-carboxylate] | > 20 | > 20 | 
CCc1nc2ccc(Cl)cn2c1C(=O)NCc1ccc(C(C)(C)C)cc1 [Compound 73] | < 1 | < 1 | 
CCc1nc2ccc(Cl)cn2c1C(=O)NCc1ccc(-c2ccc(C#N)cc2)cc1 [Compound 121, 6-Chloro-N-((4′-cyanobiphenyl-4-yl)methyl)-2-ethylimidazo[1,2-a]pyridine-3-carboxamide] | < 1 | < 1 | 

Compound | MIC [1, 3] [µM] | MIC [2, 4] [µM] | other results
CCc1nc2ccccn2c1C(=O)NCc1ccc(OC(F)(F)F)cc1 [Compound 57, 2-Ethyl-N-(4-(trifluoromethoxy)benzyl)imidazo[1,2-a]pyridine-3-carboxamide] | < 1 | < 1 | 
CCc1nc2cc(Cl)ccn2c1C(=O)NCc1ccc(-c2ccc(Cl)cc2)cc1 [Compound 95, 7-Chloro-N-((4′-chlorobiphenyl-4-yl)methyl)-2-ethylimidazo[1,2-a]pyridine-3-carboxamide] | < 1 | < 1 | 
Cc1nc2ccccn2c1C(=O)NCCc1ccccc1 [Compound 21, 2-Methyl-N-phenethylimidazo[1,2-a]pyridine-3-carboxamide] | > 20 | > 20 | 
CCc1nc2ccc(Cl)cn2c1C(=O)NCc1ccc(OC(C)C)cc1 [Compound 75] | < 1 | < 1 | 
CCc1nc2ccc(Cl)cn2c1C(=O)NCC1CCCc2c1cnn2-c1ccc(OC(F)(F)F)cc1 (stereo not drawn) [Compound 237, 6-Chloro-2-ethyl-N-((1-(4-(trifluoromethoxy)phenyl)-4,5,6,7-tetrahydro-1,1-indazol-4-yl)methyl)imidazo[1,2-a]pyridine-3-carboxamide] | > 20 | > 20 | 
CCc1nc2ccc(Cl)cn2c1C(=O)NCc1ccc(N2CCC(Oc3ccc(Cl)cc3)CC2)cc1 [Compound 162, 6-Chloro-N-(4-(4-(4-chlorophenoxy)piperidin-1-yl)benzyl)-2-ethylimidazo[1,2-a]pyridine-3-carboxamide] | < 1 | < 1 | 
CCc1nc2ccc(C)cn2c1C(=O)NCc1ccc(C(C)(C)C)cc1 [Compound 64, N-(4-tert-Butylbenzyl)-2-ethyl-6-methylimidazo[1,2-a]pyridine-3-carboxamide] | < 1 | < 1 | 
Cc1nc2ccc(Cl)cn2c1C(=O)NCc1ccc(-c2ccccc2)cc1 [Compound 44] | < 1 | < 1 | 
CCc1nc2ccc(C(F)(F)F)cn2c1C(=O)NCc1ccc(N2CCC(Oc3ccc(OC(F)(F)F)cc3)CC2)cc1 [Compound 168, 2-Ethyl-N-(4-(4-(4-(trifluoromethoxy)phenoxy)piperidin-1-yl)benzyl)-6-(trifluoromethyl)imidazo[1,2-a]pyridine-3-carboxamide] | 1 to 20 (≈ 0.607 to 12.1 µg/mL) | 1 to 20 (≈ 0.607 to 12.1 µg/mL) | 
Cc1nc2c(O)cccn2c1C(=O)NCc1ccccc1 [Compound 43, N-Benzyl-8-hydroxy-2-methylimidazo[1,2-a]pyridine-3-carboxamide] | > 20 | > 20 | 
CCc1nc2ccc(Br)cn2c1C(=O)NCc1ccc(OC(F)(F)F)cc1 [Compound 152, 6-Bromo-2-ethyl-N-(4-(trifluoromethoxy)benzyl)imidazo[1,2-a]pyridine-3-carboxamide] | < 1 | < 1 | 
CCc1nc2ccc(C(F)(F)F)cn2c1C(=O)NCc1ccc(OC(F)(F)F)cc1 [Compound 151, 2-Ethyl-N-(4-(trifluoromethoxy)benzyl)-6-(trifluoromethyl)imidazo[1,2-a]pyridine-3-carboxamide] | 1 to 20 (≈ 0.431 to 8.63 µg/mL) | > 20 | 
CCc1nc2ccc(Cl)cn2c1C(=O)NCc1ccc(OC(F)(F)F)cc1 [Compound 72] | < 1 | < 1 | 
COc1ccc(CCNC(=O)c2c(C)nc3ccccn23)cc1 [Compound 22, N-(4-Methoxyphenethyl)-2-methylimidazo[1,2-a]pyridine-3-carboxamide] | > 20 | > 20 | 
Cc1nc2ccccn2c1C(=O)NCc1ccccc1 [Compound 8, N-Benzyl-2-methylimidazo[1,2-a]pyridine-3-carboxamide] |  |  | MIC ([1]; read-out: QUM (μM)): > 20 µM; MIC ([1]; dose response confirmation, 80% bacterial growth inhibition, read-out: minimum inhibitory concentration (MIC), QUM assay): 5 µM (≈ 1.33 µg/mL); MIC ([2]; read-out: QIM (μM)): 1 to 20 µM (≈ 0.265 to 5.31 µg/mL); MIC ([2]; dose response confirmation, 80% bacterial growth inhibition, read-out: minimum inhibitory concentration (MIC), QIM assay): 2.5 µM (≈ 0.663 µg/mL)
CCc1nc2cc(Cl)ccn2c1C(=O)NCc1ccc(-c2ccc[nH]2)cc1 [Compound 136, N-(4-(1H-Pyrrol-2-yl)benzyl)-7-chloro-2-ethylimidazo[1,2-a]pyridine-3-carboxamide] | 1 to 20 (≈ 0.379 to 7.58 µg/mL) | 1 to 20 (≈ 0.379 to 7.58 µg/mL) | 
Cc1nc2ccccn2c1NC(=O)Cc1ccccc1 [Compound 26, N-(2-Methylimidazo[1,2-a]pyridin-3-yl)-2-phenylacetamide] | > 20 | > 20 | 
Cc1nc2c(Cl)cccn2c1C(=O)NCc1ccccc1 [Compound 27, N-Benzyl-8-chloro-2-methylimidazo[1,2-a]pyridine-3-carboxamide] | > 20 | > 20 | 
COC(=O)c1ccc(CNC(=O)c2c(C)nc3ccccn23)cc1 [Compound 10, Methyl 4-((2-me3thylimidazo[1,2-a]pyridine-3-carboxamido)methyl)benzoate] | 1 to 20 (≈ 0.323 to 6.47 µg/mL) | > 20 | 
